Like-named read-outs stand apart in the source and are kept apart here. Bridge positions count the residues as written; N and C are the ends. Ends that are not written are not given here. Peptide text beside a SMILES is read from it.

The target of experiment [1] is T1, calcitonin receptor (Rattus norvegicus, UniProt P32214).
T1 sequence (P32214 25-516): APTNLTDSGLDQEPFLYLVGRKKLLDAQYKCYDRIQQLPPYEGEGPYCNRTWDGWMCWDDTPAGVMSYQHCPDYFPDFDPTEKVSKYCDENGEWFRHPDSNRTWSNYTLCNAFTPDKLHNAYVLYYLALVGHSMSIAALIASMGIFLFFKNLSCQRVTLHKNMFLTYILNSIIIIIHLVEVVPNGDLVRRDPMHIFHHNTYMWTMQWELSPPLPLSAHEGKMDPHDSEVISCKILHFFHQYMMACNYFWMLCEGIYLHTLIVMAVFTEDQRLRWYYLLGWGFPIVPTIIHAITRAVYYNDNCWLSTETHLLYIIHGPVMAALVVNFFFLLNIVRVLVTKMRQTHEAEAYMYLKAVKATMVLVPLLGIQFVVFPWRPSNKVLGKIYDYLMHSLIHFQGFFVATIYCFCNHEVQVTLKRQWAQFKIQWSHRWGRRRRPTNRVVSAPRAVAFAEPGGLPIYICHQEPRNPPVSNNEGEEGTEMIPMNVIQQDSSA
Description: calcitonin receptor binding assay (rCalcitonin RBA). The note with it: Table 6; read-out: CT receptor binding.

The next experiment deals with adrenomedullin receptor (Homo sapiens, UniProt O60895+Q16602). Description: adrenomedullin (ADM) receptor binding assay. The note with it: Table 6.
Chain of adrenomedullin receptor (Q16602 23-461): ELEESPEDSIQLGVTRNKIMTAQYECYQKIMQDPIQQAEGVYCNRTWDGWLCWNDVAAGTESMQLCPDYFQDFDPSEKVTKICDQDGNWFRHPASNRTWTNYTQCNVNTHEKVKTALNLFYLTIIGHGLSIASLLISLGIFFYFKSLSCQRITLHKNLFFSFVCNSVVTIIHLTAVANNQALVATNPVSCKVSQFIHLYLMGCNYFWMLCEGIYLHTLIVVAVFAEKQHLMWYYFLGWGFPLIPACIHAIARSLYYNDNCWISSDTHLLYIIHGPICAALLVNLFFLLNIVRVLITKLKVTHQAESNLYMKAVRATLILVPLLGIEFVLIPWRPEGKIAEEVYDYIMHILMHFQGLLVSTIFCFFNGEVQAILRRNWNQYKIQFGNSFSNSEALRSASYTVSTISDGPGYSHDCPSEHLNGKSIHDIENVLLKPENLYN
Chain of adrenomedullin receptor (O60895 43-175): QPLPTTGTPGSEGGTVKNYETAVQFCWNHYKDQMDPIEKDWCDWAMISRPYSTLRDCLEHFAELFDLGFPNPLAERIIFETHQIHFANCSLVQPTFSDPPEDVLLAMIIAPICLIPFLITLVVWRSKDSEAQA
Experiment [2] concerns calcitonin receptor. As to the kind of experiment: cAMP production in CHO cells (AlphaScreen). Format: cell-based. The note with it: CHO, 30,000 cells/well. (In general: Cyclic AMP is a second messenger, typically raised through Gs and lowered through Gi signalling.)

As to `CSCC[C@H](NC(=O)[C@H](CC(C)C)NC(=O)[C@H](CCC(N)=O)NC(=O)[C@H](Cc1c[nH]c2ccccc12)NC(=O)[C@H](CC(C)C)NC(=O)[C@H](CCCNC(=N)N)NC(=O)[C@H](Cc1c[nH]cn1)NC(=O)[C@H](CO)NC(=O)[C@H](CC(C)C)NC(=O)[C@H](CC(N)=O)NC(=O)[C@H](CCC(N)=O)NC(=O)[C@@H](NC(=O)[C@H](CCC(N)=O)NC(=O)[C@@H]1CSSC[C@H](NC(=O)CNC(=O)[C@@H](NC(=O)[C@@H](N)CCCNC(=N)N)C(C)C)C(=O)N[C@@H](C(C)C)C(=O)N[C@@H](CC(C)C)C(=O)NCC(=O)N[C@@H]([C@@H](C)O)C(=O)N1)C(C)C)C(=O)NCC(=O)N1CCC[C@H]1C(=O)N[C@@H](C)C(=O)NCC(=O)N[C@@H](CCCNC(=N)N)C(=O)N[C@@H](CCC(N)=O)C(=O)N[C@@H](CC(=O)O)C(=O)N[C@@H](CO)C(=O)N[C@@H](C)C(=O)N1CCC[C@H]1C(=O)N[C@H](C(=O)N[C@@H](CC(=O)O)C(=O)N1CCC[C@H]1C(=O)N[C@@H](CO)C(=O)N[C@@H](CO)C(=O)N1CCC[C@H]1C(=O)N[C@@H](Cc1c[nH]cn1)C(=O)N[C@@H](CO)C(=O)N[C@@H](Cc1ccc(O)cc1)C(N)=O)C(C)C` [compound 10], the IC50 came to 55 nM at calcitonin receptor [1] and 7.1 nM at adrenomedullin receptor.
Regarding `CC(C)C[C@H](NC(=O)[C@H](CCC(N)=O)NC(=O)[C@H](C)NC(=O)[C@H](CCC(N)=O)NC(=O)[C@@H](N)[C@@H](C)O)C(=O)N[C@@H](CC(C)C)C(=O)N[C@@H](CCCNC(=N)N)C(=O)N[C@H](C(=O)NCC(=O)N[C@H]1CSSC[C@@H](C(=O)N[C@@H](CCC(N)=O)C(=O)N[C@H](C(=O)N[C@@H](CCC(N)=O)C(=O)N[C@@H](CC(N)=O)C(=O)N[C@@H](CC(C)C)C(=O)N[C@@H](CO)C(=O)N[C@@H](Cc2c[nH]cn2)C(=O)N[C@@H](CCCNC(=N)N)C(=O)N[C@@H](CC(C)C)C(=O)N[C@@H](Cc2c[nH]c3ccccc23)C(=O)N[C@@H](CCC(N)=O)C(=O)N[C@@H](CC(C)C)C(=O)N[C@@H](CC(=O)O)C(=O)N[C@@H](CO)C(=O)N[C@@H](C)C(=O)N2CCC[C@H]2C(=O)N[C@H](C(=O)N[C@@H](CC(=O)O)C(=O)N2CCC[C@H]2C(=O)N[C@@H](CO)C(=O)N[C@@H](CO)C(=O)N2CCC[C@H]2C(=O)N[C@@H](Cc2c[nH]cn2)C(=O)N[C@@H](CO)C(=O)N[C@@H](Cc2ccc(O)cc2)C(N)=O)C(C)C)C(C)C)NC(=O)[C@H]([C@@H](C)O)NC(=O)CNC(=O)[C@H](CC(C)C)NC(=O)[C@H](C(C)C)NC1=O)C(C)C` [compound 17] (H-TQAQLLRVGCVLGTCQVQNLSHRLWQLDSAPVDPSSPHSY-NH2; disulfide 10-15 (inferred); N-terminus assumed), the values for the IC50 on calcitonin receptor [1] and at adrenomedullin receptor were greater than 1000 nM and 304 nM, respectively.
For `CC(C)C[C@@H]1NC(=O)[C@H](CC(N)=O)NC(=O)CNC(=O)[C@@H](NC(=O)CNC(=O)[C@@H](N)C(C)C)CSSC[C@@H](C(=O)N[C@@H](CCC(N)=O)C(=O)N[C@H](C(=O)N[C@@H](CCC(N)=O)C(=O)N[C@@H](CC(N)=O)C(=O)N[C@@H](CC(C)C)C(=O)N[C@@H](CO)C(=O)N[C@@H](Cc2c[nH]cn2)C(=O)N[C@@H](CCCNC(=N)N)C(=O)N[C@@H](CC(C)C)C(=O)N[C@@H](Cc2c[nH]c3ccccc23)C(=O)N[C@@H](CCC(N)=O)C(=O)N[C@@H](CC(C)C)C(=O)N[C@@H](CCCNC(=N)N)C(=O)N[C@@H](CCC(N)=O)C(=O)N[C@@H](CC(=O)O)C(=O)N[C@@H](CO)C(=O)N[C@@H](C)C(=O)N2CCC[C@H]2C(=O)N[C@H](C(=O)N[C@@H](CC(=O)O)C(=O)N2CCC[C@H]2C(=O)N[C@@H](CO)C(=O)N[C@@H](CO)C(=O)N2CCC[C@H]2C(=O)N[C@@H](Cc2c[nH]cn2)C(=O)N[C@@H](CO)C(=O)N[C@@H](Cc2ccc(O)cc2)C(N)=O)C(C)C)C(C)C)NC(=O)[C@H]([C@@H](C)O)NC(=O)[C@H](CO)NC1=O` [compound 29] (H-VGCGNLSTCQVQNLSHRLWQLRQDSAPVDPSSPHSY-NH2; disulfide 3-9 (inferred)), in that order: 9 nM and no less than 1000 nM.
Consider `CC[C@H](C)[C@H](NC(=O)[C@H](C)NC(=O)[C@@H](NC(=O)[C@H](CCC(N)=O)NC(=O)[C@@H]1CCCN1C(=O)[C@H](Cc1ccccc1)NC(=O)[C@@H](NC(=O)[C@H](Cc1c[nH]cn1)NC(=O)[C@H](Cc1ccccc1)NC(=O)[C@H](CCCCN)NC(=O)[C@H](CC(N)=O)NC(=O)[C@H](Cc1ccccc1)NC(=O)[C@H](CC(=O)O)NC(=O)[C@H](CCC(N)=O)NC(=O)[C@@H](NC(=O)[C@H](Cc1ccc(O)cc1)NC(=O)[C@@H](NC(=O)CNC(=O)[C@H](CC(C)C)NC(=O)[C@H](CCSC)NC(=O)[C@@H]1CSSC[C@H](N)C(=O)NCC(=O)N[C@@H](CC(N)=O)C(=O)N[C@@H](CC(C)C)C(=O)N[C@@H](CO)C(=O)N[C@@H]([C@@H](C)O)C(=O)N1)[C@@H](C)O)[C@@H](C)O)[C@@H](C)O)[C@@H](C)O)C(=O)NCC(=O)N[C@H](C(=O)NCC(=O)N[C@@H](C)C(=O)N1CCC[C@H]1C(N)=O)C(C)C` [SEQ ID NO: 6], for which the half-maximal effective concentration (EC50) with calcitonin receptor [2] (average of three experiments, read-out: Average EC50) was determined as 0.097 nM; in the experiment on calcitonin receptor [2] (read-out: Experiment 1 EC50), 0.077 nM; with calcitonin receptor [2] (read-out: Experiment 2 EC50), 0.14 nM; in the experiment on calcitonin receptor [2] (read-out: Experiment 3 EC50), 0.075 nM.
In the case of “TQAQLLRVGCVLGTCQVQNLSHRLWQLRQDSAPVDPSSPHSY-NH2 (disulfide 10-15 (inferred)) [compound 16]”, the IC50 at calcitonin receptor [1] is 22 nM; at adrenomedullin receptor it was no less than 1000 nM.
In the case of “TQAQLLRVGCNTATCQVQNLSHRLWQLMGPAGRQDSAPVDPSSPHSY-NH2 (disulfide 10-15 (inferred)) [compound 21]”, the IC50 on calcitonin receptor [1] was found to be 17 nM; on adrenomedullin receptor it was 47 nM.
With `CSCC[C@H](NC(=O)[C@H](CC(C)C)NC(=O)[C@H](CCC(N)=O)NC(=O)[C@H](Cc1c[nH]c2ccccc12)NC(=O)[C@H](CC(C)C)NC(=O)[C@H](CCCNC(=N)N)NC(=O)[C@H](Cc1c[nH]cn1)NC(=O)[C@H](CO)NC(=O)[C@H](CC(C)C)NC(=O)[C@H](CC(N)=O)NC(=O)[C@H](CCC(N)=O)NC(=O)[C@@H](NC(=O)[C@H](CCC(N)=O)NC(=O)[C@@H]1CSSC[C@H](N)C(=O)N[C@@H](C(C)C)C(=O)N[C@@H](CC(C)C)C(=O)NCC(=O)N[C@@H]([C@@H](C)O)C(=O)N1)C(C)C)C(=O)NCC(=O)N1CCC[C@H]1C(=O)N[C@@H](C)C(=O)NCC(=O)N[C@@H](CCCNC(=N)N)C(=O)N[C@@H](CCC(N)=O)C(=O)N[C@@H](CC(=O)O)C(=O)N[C@@H](CO)C(=O)N[C@@H](C)C(=O)N1CCC[C@H]1C(=O)N[C@H](C(=O)N[C@@H](CC(=O)O)C(=O)N1CCC[C@H]1C(=O)N[C@@H](CO)C(=O)N[C@@H](CO)C(=O)N1CCC[C@H]1C(=O)N[C@@H](Cc1c[nH]cn1)C(=O)N[C@@H](CO)C(=O)N[C@@H](Cc1ccc(O)cc1)C(N)=O)C(C)C` [compound 12] (H-CVLGTCQVQNLSHRLWQLMGPAGRQDSAPVDPSSPHSY-NH2; disulfide 1-6 (inferred); N-terminus assumed), the values for the IC50 on calcitonin receptor [1] and on adrenomedullin receptor were 198 nM and 18 nM, respectively.
On to “H-TQAQLLRVGMVLGTMQVQNLSHRLWQLMGPAGRQDSAPVDPSSPHSY-NH2 [compound 25]”, for which the IC50 at calcitonin receptor [1] is greater than 1000 nM; at adrenomedullin receptor, 120 nM.
With “H-TQAQLLRVGCSNLSTCQVQNLSHRLWQLMGPAGRQDSAPVDPSSPHSY-NH2 (disulfide 10-16 (inferred)) [compound 20]”, the IC50 came out at 16 nM on calcitonin receptor [1] and 36 nM on adrenomedullin receptor.
As to `CC(C)C[C@H](NC(=O)[C@H](CCC(N)=O)NC(=O)[C@H](Cc1c[nH]c2ccccc12)NC(=O)[C@H](CC(C)C)NC(=O)[C@H](CCCNC(=N)N)NC(=O)[C@H](Cc1c[nH]cn1)NC(=O)[C@H](CO)NC(=O)[C@H](CC(C)C)NC(=O)[C@H](CC(N)=O)NC(=O)[C@H](CCC(N)=O)NC(=O)[C@@H](NC(=O)[C@H](CCC(N)=O)NC(=O)[C@@H]1CSSC[C@H](N)C(=O)N[C@@H](C(C)C)C(=O)N[C@@H](CC(C)C)C(=O)NCC(=O)N[C@@H]([C@@H](C)O)C(=O)N1)C(C)C)C(=O)N[C@@H](CCCNC(=N)N)C(=O)N[C@@H](CCC(N)=O)C(=O)N[C@@H](CCC(=O)O)C(=O)N[C@@H](CO)C(=O)N[C@@H](C)C(=O)N1CCC[C@H]1C(=O)N[C@H](C(=O)N[C@@H](CCC(=O)O)C(=O)N1CCC[C@H]1C(=O)N[C@@H](CO)C(=O)N[C@@H](CO)C(=O)N1CCC[C@H]1C(=O)N[C@@H](Cc1c[nH]cn1)C(=O)N[C@@H](CO)C(=O)N[C@@H](Cc1ccc(O)cc1)C(N)=O)C(C)C` [compound 19] (H-CVLGTCQVQNLSHRLWQLRQESAPVEPSSPHSY-NH2; disulfide 1-6 (inferred); N-terminus assumed), the results for the IC50 at calcitonin receptor [1] and at adrenomedullin receptor were 247 nM and no less than 1000 nM, respectively.

For orientation: EC50 means the concentration giving half of the maximal effect.

Source of the values: US7928060B2, “Amylin family polypeptide-6 (AFP-6) analogs and methods of making and using them” (Amylin Pharmaceuticals, Inc., priority 2004, dated 2011).
